Patent EP4785945A1, “THERAPEUTIC AGENT FOR RHEUMATOID ARTHRITIS” (Teijin Pharma Limited, priority 2023, dated 2025)

How the values were obtained:
[1] = test system: rat adjuvant-induced arthritis (AIA) model; test: Combination study with methotrexate, Arthritis Score; format: in vivo
Description: The effect of combining Compound 1 with methotrexate was measured using a rat adjuvant-induced arthritis (AIA) model. The effect was evaluated using the Arthritis Score. […] Compared to the control, the scores decreased by 33% when only Compound 1 was used, by 59% when only methotrexate was used, and by 86% when Compound 1 and methotrexate were used in combination. On the other hand, in this study, there was no decrease in the number of bone marrow cells even when Compound 1 and methotrexate were used in combination.

rat AIA model = test: Combination study with tofacitinib, Arthritis Score; format: in vivo; conditions: 30 mg/kg/day
Description: The effect of combining compound 1 with tofacitinib was measured using a rat AIA model. The effect was evaluated using the Arthritis Score.

[2] = test system: synovial cells and bone marrow cells; format: in vitro ADME
Description: Cultured synovial cells and bone marrow cells were used. Compound 1 was added, and the intracellular concentration in the synovial cells and bone marrow cells and the concentration in the culture medium were measured.

[3] = test system: matrix metalloproteinase-3 (MMP-3); test: MMP-3 secretion by synovial cells stimulated with TNF-α and IL-1β; format: cell-based; conditions: Synovial cell, relative to baseline after TNF-α and IL-1β stimulation without Compound 1, read-out: suppression of MMP-3 secretion
Description: (§1) The synovial cells used in the test were derived from rheumatoid arthritis patients. The synovial cells were stimulated with tumor necrosis factor-α (TNF-α) and interleukin-1β (IL-1β) at the time of the test, and the effect of Compound 1 was measured. […] Furthermore, with regard to matrix metalloproteinase-3 (MMP-3), which is a mediator involved in tissue destruction, relative to a baseline after TNF-α and IL-1β stimulation without any added Compound 1, Compound 1 suppressed secretion in a dosage-dependent manner, by 14% when 10 nM was added, 21% when 30 nM was added, 37% when 100 nM was added, 60% when 300 nM was added, and 63% when 1000 nM was added.

[4] = test system: granulocyte macrophage colony-stimulating factor (GM-CSF); test: GM-CSF secretion by synovial cells stimulated with TNF-α and IL-1β; format: cell-based; conditions: relative to baseline after TNF-α and IL-1β stimulation without Compound 1, read-out: suppression of GM-CSF secretion
Description: as §1

[5] = test system: mouse anti-collagen antibody-induced arthritis (CAIA) model; test: Combination study with etanercept, Arthritis Score; format: in vivo; conditions: Compound 1 alone, 50 mg/kg/day
Description: The effect of combining Compound 1 with etanercept was measured using a mouse anti-collagen antibody-induced arthritis (CAIA) model. The effect was evaluated using the Arthritis Score. […] Compared to the control, the scores decreased by 64% when only Compound 1 was used, by 62% when only etanercept was used, and by 97% when Compound 1 and etanercept were used in combination.

[6] = test system: rheumatoid arthritis patients; test: Clinical trial on rheumatoid arthritis patients: efficacy (ACR20, DAS28-CRP, VAS scale pain score, TJC); format: in vivo, humans
Description: (§2) Compound 1 was orally administered at dosages of 10, 25, 75, or 175 mg once daily for seven days (double-blind study) to 32 rheumatoid arthritis patients (six patients for each dosage of Compound 1 administration, and two patients for each dosage of placebo administration).
(§3) Endpoints included: items related to disease activity and pain (DAS28-CRP, ACR20, VAS scale pain score, and TJC) to represent efficacy; vital signs (blood pressure, pulse, body temperature, and respiratory rate), physical findings, electrocardiograms, hematological tests, blood biochemistry tests, and the severity and frequency of adverse events to represent safety; and changes in the plasma concentration of Compound 1 to represent pharmacokinetics (PK).
DAS28-CRP was used to determine whether there was improvement or no improvement based on the differences between the values on Day 1 and Day 7 of administration, in accordance with the criteria shown in Table 1 (EULAR criteria).
ACR20 was used to determine whether there was an improvement based on the ACR20 on Day 1 and Day 7 of administration.
The percentage change in the VAS scale pain score is the percentage change in the score on Day 7 compared to the score on Day 1.
The percentage change in the TJC score is the percentage change in the value on Day 7 compared to the value on Day 1.

[7] = test system: rheumatoid arthritis patients; test: Clinical trial on rheumatoid arthritis patients: safety; format: in vivo, humans
Description: as §2, §3

synovial cells = test: Proliferation of synovial cells stimulated with TNF-α and IL-1β; format: cell-based; conditions: Synovial cell, relative to baseline after TNF-α and IL-1β stimulation without Compound 1, read-out: suppression of proliferation of synovial cells
Description: as §1

[8] = Clinical trial on rheumatoid arthritis patients: pharmacokinetics (plasma concentration); format: in vivo, humans; conditions: human, Day 7 after administration
Description: as §2, §3

[9] = package insert; cited from earlier work
[10] = 25 mg, 75 mg, and 175 mg administration groups, Day 7 compared to Day 1
[11] = 75 mg administration group, Day 7 compared to Day 1
[12] = Day 1 to Day 7 of administration and three-day follow-up (up to Day 10)
[13] = all administration groups (10 to 175 mg)

CN(Cc1cnc2nc(N)nc(N)c2n1)c1ccc(C(=O)N[C@@H](CCC(=O)O)C(=O)O)cc1 [methotrexate, reference compound]
decrease of Arthritis Score compared to the control ([1]; methotrexate alone, 0.075 mg/kg/day): 59%

CC(C)Nc1nc([C@@H](C)O)cc2cnc(Nc3ccc(N4CCNCC4=O)cn3)nc12 [Compound 1, (R)-1-(6-((6-(1-hydroxyethyl)-8-(isopropylamino)pyrido[3,4-d]pyrimidin-2-yl)amino)pyridin-3-yl)piperazin-2-one]
decrease of Arthritis Score compared to the control (rat AIA model; Compound 1 alone): 40%
distribution ratio between synovial cells and bone marrow cells [2]: 84:16
inhibition at 0.01 µM ([3]; 10 nM): 14%
inhibition at 0.03 µM ([3]; 30 nM): 21%
inhibition at 0.1 µM ([3]; 100 nM): 37%
inhibition at 0.3 µM ([3]; 300 nM): 60%
inhibition at 1 µM ([3]; 1000 nM): 63%
inhibition at 0.008 µM ([4]; 8 nM): 17%
inhibition at 0.04 µM ([4]; 40 nM): 25%
inhibition at 0.2 µM ([4]; 200 nM): 48%
inhibition at 1 µM ([4]; 1000 nM): 65%
decrease of Arthritis Score compared to the control [5]: 64%
percentages of subjects who showed improvement in ACR20, compared with placebo group ([6]; 25 mg, 75 mg, and 175 mg administration groups, once daily oral, seven days): higher than in the placebo group
percentages of subjects who showed improvement in DAS28-CRP, compared with placebo group ([6]; 25 mg, 75 mg, and 175 mg administration groups, once daily oral, seven days, EULAR criteria): higher than in the placebo group
decreases in the TJC scores, compared with placebo group [6, 10]: higher than in the placebo group
decreases in the VAS scale pain scores, compared with placebo group [6, 10]: higher than in the placebo group
percentage of subjects who showed improvement in ACR20 ([6]; 75 mg administration group, once daily oral, seven days): 60%
percentage of subjects who showed improvement in DAS28-CRP ([6]; 75 mg administration group, once daily oral, seven days, EULAR criteria): 80%
percentage change in the TJC score [6, 11]: -40%
percentage change in the VAS scale pain score [6, 11]: -40%
adverse events, cases (events) ([7]; 10 mg administration group): two cases (five events)
adverse events, cases (events) ([7]; 25 mg administration group): two cases (three events)
adverse events, cases (events) ([7]; 75 mg administration group): two cases (three events)
adverse events, cases (events) ([7]; 175 mg administration group): one case (one event)
neutropenia or decrease in neutrophil count [7, 12]: no neutropenia or decrease in neutrophil count
neutrophil count [7, 12]: maintained a constant neutrophil count
severe adverse events [7, 13]: no severe adverse events
severity of adverse events [7, 13]: mild to moderate
changes in vital signs, electrocardiograms, physical findings, hematological tests, or blood biochemistry tests ([7]; any dosage (10, 25, 75, 175 mg once daily, seven days)): No significant changes
inhibition at 0.01 µM (synovial cells; 10 nM): 5%
inhibition at 0.03 µM (synovial cells; 30 nM): 14%
inhibition at 0.1 µM (synovial cells; 100 nM): 19%
inhibition at 0.3 µM (synovial cells; 300 nM): 27%
inhibition at 1 µM (synovial cells; 1000 nM): 35%
decrease of Arthritis Score compared to the control ([1]; Compound 1 alone, 30 mg/kg/day): 33%
half-life at 168 h ([8]; 10 mg once daily oral): 12.9 h
half-life at 168 h ([8]; 25 mg once daily oral): 11.9 h
half-life at 168 h ([8]; 75 mg once daily oral): 14.6 h
half-life at 168 h ([8]; 175 mg once daily oral): 10.4 h

CCN1CCN(Cc2ccc(Nc3ncc(F)c(-c4cc(F)c5nc(C)n(C(C)C)c5c4)n3)nc2)CC1 [abemaciclib]
incidence of the side effect of neutropenia [9]: 42.2%

C[C@@H]1CCN(C(=O)CC#N)C[C@@H]1N(C)c1ncnc2[nH]ccc12 [tofacitinib, reference compound]
decrease of Arthritis Score compared to the control (rat AIA model; tofacitinib alone): 67%
